The text below walks through data of ChEMBL document CHEMBL4342527, “Discovery of Novel Fungal Lanosterol 14α-Demethylase (CYP51)/Histone Deacetylase Dual Inhibitors to Treat Azole-Resistant Candidiasis” (J Med Chem, 2020).

Molecules are shown by their SMILES. ≈ marks a conversion by molar mass, not a printed value. Calls of active or inactive are those of the source. The calls are words filed in the database; no cut-off is given here.

The subject of data set [1] is Candida albicans. Nature of the data set: Antifungal activity against azole-sensitive Candida albicans SC5314 after 48 hrs by spectrophotometry-based serial microdilution method. In kind it is functional. Particulars: Candida albicans, SC5314, 48 h; read-out: MIC80. Background: Broth dilution looks for growth in wells or tubes with falling amounts of substance.
In data set [2] the test system is Candida albicans. Nature of the data set: Antifungal activity against azole-resistant Candida albicans 0304103 after 48 hrs by spectrophotometry-based serial microdilution method. In kind it is functional. Particulars: Candida albicans, 0304103, 48 h.
The next data set concerns Candida tropicalis. Put plainly: Antifungal activity against azole-resistant Candida tropicalis 5008 after 48 hrs by spectrophotometry-based serial microdilution method. In kind it is functional. To be noted: Candida tropicalis, 5008, 48 h.
A further data set deals with Cryptococcus neoformans. Nature of the data set: Antifungal activity against azole-sensitive Cryptococcus neoformans H99 after 72 hrs by spectrophotometry-based serial microdilution method. In kind it is functional, var grubii H99. To be noted: Cryptococcus neoformans, var grubii H99 , 72 h; read-out: MIC80.
Data set [3] can be described thus: Selectivity index, ratio of IC50 for human A549 cells to MIC80 for azole-resistant Candida albicans 0304103. In kind it is toxicity.
Data set [4] is described as follows: Selectivity index, ratio of IC50 for human A549 cells to MIC80 for azole-resistant Candida albicans 7781. In kind it is toxicity.
Data set [5] is described as follows: Selectivity index, ratio of IC50 for human A549 cells to MIC80 for azole-resistant Candida tropicalis 5008. In kind it is toxicity.
Data set [6] is described as follows: Selectivity index, ratio of IC50 for HUVEC to MIC80 for azole-resistant Candida tropicalis 5008. Type of data set: toxicity. Particulars: human.
Data set [7] addresses T1, Lanosterol 14-alpha demethylase (Candida albicans (strain SC5314 / ATCC MYA-2876) (Yeast), UniProt P10613). Put plainly: Inhibition of CYP51 in azole-resistant Candida albicans 0304103 assessed as ergosterol content at 0.5 ug/ml after 24 hrs by GC-MS analysis (reference value: 75.21%). On the set-up: scale not given: the % may be the effect or the level left.
Data set [8] deals with T1, Lanosterol 14-alpha demethylase. Nature of the data set: Inhibition of CYP51 in azole-resistant Candida albicans 0304103 assessed as lanosterol level at 0.5 ug/ml after 24 hrs by GC-MS analysis (reference value: 4.15%). Set-up: scale not given: the % may be the effect or the level left.
Data set [9] has the same target. Put plainly: Inhibition of CYP51 in azole-resistant Candida albicans 0304103 assessed as eburicol level at 0.5 ug/ml after 24 hrs by GC-MS analysis relative to control. Set-up: scale not given: the % may be the effect or the level left.
For a further data set, the target named is Histone deacetylase. Nature of the data set: Inhibition of HDAC in HUVEC using Boc-Lys(Ac)-AMC as substrate preincubated for 12 hrs followed by substrate addition and measured after 4 hrs by fluorimetry. Type of data set: ADME, cell-based, Homo sapiens.
A further data set deals with Histone deacetylase 1 (Homo sapiens, UniProt Q13547). Put plainly: Inhibition of HDAC1 (unknown origin) after 30 mins by fluorescence based assay.
Data set [10] addresses T2, Protein deacetylase HDAC6 (Homo sapiens, UniProt Q9UBN7).
T2 sequence (Q9UBN7 whole entry): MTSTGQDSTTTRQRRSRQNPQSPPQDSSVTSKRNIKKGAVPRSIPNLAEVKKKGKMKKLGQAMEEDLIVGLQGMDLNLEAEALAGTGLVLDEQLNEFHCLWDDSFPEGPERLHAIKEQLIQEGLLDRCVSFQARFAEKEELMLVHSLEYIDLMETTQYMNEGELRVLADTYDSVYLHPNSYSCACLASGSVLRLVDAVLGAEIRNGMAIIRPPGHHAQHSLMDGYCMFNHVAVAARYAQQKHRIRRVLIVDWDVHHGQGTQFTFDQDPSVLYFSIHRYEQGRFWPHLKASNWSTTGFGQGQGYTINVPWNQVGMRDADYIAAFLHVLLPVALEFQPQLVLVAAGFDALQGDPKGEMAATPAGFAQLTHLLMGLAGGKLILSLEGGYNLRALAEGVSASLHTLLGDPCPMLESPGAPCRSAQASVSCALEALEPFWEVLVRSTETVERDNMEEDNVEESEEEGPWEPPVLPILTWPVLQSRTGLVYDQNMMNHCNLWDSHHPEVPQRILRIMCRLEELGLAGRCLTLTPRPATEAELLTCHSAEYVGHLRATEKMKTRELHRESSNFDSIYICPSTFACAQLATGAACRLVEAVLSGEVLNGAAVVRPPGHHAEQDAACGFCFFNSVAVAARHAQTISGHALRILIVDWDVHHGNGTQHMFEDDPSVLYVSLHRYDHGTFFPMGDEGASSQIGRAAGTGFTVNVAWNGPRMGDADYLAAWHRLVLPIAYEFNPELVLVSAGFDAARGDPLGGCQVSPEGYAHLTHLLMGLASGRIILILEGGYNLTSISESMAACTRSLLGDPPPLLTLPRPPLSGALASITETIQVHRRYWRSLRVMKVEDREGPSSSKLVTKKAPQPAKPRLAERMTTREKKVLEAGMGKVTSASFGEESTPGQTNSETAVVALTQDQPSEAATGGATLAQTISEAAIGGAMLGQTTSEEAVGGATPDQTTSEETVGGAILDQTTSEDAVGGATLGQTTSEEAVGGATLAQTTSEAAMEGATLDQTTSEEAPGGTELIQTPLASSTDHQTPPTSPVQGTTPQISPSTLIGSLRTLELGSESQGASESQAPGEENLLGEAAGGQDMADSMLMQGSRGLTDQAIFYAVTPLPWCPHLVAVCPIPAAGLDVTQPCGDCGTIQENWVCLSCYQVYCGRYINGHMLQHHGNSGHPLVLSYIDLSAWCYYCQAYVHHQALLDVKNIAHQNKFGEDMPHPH
Put plainly: Inhibition of HDAC6 (unknown origin) after 30 mins by fluorescence based assay.

In data set [11] the test system is Candida albicans. Nature of the data set: Inhibition of HDAC in azole-resistant Candida albicans 0304103 assessed as reduction in CDR1 gene expression at 32 ug/ml after 16 hrs by SYBR Green-1 dye based RT-PCR analysis. Particulars: 304103.
The subject of data set [12] is Candida albicans. Nature of the data set: Inhibition of HDAC in azole-resistant Candida albicans 0304103 assessed as reduction in CDR2 gene expression at 32 ug/ml after 16 hrs by SYBR Green-1 dye based RT-PCR analysis. Particulars: 304103.
Data set [13] deals with Candida albicans. Nature of the data set: Inhibition of biofilm formation in azole resistant Candida albicans 0304103 after 24 hrs by XTT assay. Type of data set: functional, organism-based.
The test system of data set [14] is Candida albicans. Put plainly: Inhibition of yeast to hypha transition in azole resistant Candida albicans 0304103 assessed as down regulation of EFG1 gene expression at 32 ug /ml after 16 hrs by SYBR Green I dye based RT-PCR analysis. Type of data set: functional, organism-based.
Data set [15] concerns Candida albicans. Nature of the data set: Inhibition of yeast to hypha transition in azole resistant Candida albicans 0304103 assessed as down regulation of CPH1 gene expression at 32 ug /ml after 16 hrs by SYBR Green I dye based RT-PCR analysis. In kind it is functional, organism-based.
For data set [16], the system named is Candida albicans. Put plainly: Antifungal activity against azole-resistant Candida albicans 0304103 infected in ICR mouse assessed as reduction in fungal burden in kidney by measuring colony forming units at 20 mg/kg, ip qd for 5 days measured 24 hrs post-last dose (reference value: 6.89 log10CFU/g). In kind it is functional.
Data set [17] deals with Candida albicans. Nature of the data set: Antifungal activity against azole-resistant Candida albicans 0304103 infected in ICR mouse assessed as inhibition of fungal infection in kidney at 20 mg/kg, po qd for 5 days and measured on day 6 by periodic acid schiff staining-based histological analysis. Type of data set: functional, organism-based.
Data set [18] deals with Candida albicans. Nature of the data set: Antifungal activity against azole-resistant Candida albicans 0304103 infected in ICR mouse assessed as inhibition of filamentation at 20 mg/kg, po qd for 5 days and measured on day 6 by periodic acid schiff staining-based histological analysis. Type of data set: functional, organism-based.

The MIC80 is the lowest concentration that inhibits either 80% of growth or 80% of the strains tested, depending on the study. In general, IC50 refers to the concentration at which inhibition is half-maximal.

T1 sequence (P10613 whole entry): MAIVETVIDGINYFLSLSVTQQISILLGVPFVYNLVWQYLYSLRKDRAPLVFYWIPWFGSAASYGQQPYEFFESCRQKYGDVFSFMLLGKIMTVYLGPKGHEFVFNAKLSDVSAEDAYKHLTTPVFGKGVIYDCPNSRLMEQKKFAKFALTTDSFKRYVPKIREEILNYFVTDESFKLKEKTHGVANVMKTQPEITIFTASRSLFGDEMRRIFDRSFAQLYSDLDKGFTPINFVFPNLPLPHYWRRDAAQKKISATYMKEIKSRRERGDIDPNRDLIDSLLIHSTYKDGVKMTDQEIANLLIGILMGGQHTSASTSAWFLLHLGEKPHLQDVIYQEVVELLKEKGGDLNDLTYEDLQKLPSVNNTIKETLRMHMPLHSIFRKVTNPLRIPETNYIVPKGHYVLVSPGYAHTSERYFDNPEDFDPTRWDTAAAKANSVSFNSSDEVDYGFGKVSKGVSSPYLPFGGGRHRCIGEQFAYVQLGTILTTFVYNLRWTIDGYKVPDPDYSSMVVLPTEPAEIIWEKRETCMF
Histone deacetylase 1, sequence (Q13547 whole entry): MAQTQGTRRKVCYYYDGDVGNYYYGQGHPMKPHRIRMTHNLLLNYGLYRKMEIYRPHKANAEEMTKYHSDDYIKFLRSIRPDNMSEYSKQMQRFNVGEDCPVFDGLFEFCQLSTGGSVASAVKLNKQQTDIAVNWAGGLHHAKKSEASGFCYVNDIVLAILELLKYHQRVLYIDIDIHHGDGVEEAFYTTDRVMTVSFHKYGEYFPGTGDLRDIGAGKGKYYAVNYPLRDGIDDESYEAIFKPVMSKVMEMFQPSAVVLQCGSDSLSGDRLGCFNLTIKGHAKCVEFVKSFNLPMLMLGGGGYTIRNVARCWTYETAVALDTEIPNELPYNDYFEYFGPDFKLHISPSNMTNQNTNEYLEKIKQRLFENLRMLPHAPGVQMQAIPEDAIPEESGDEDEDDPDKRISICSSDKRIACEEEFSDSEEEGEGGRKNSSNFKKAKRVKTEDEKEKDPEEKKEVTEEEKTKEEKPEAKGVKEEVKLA

On to `CN(Cc1ccc(-n2cnn(CCCCc3ccc(C(=O)NO)cc3)c2=O)cc1)CC(O)(Cn1cncn1)c1ccc(F)cc1F` (racemic), for which the MIC80 came out at 4 µg/mL (≈ 6.32 µM) in the data set on Candida albicans [1], 2 µg/mL (≈ 3.16 µM) in the data set with Candida albicans [2], 8 µg/mL (≈ 12.6 µM) in the data set on Candida tropicalis and 2 µg/mL (≈ 3.16 µM) with Cryptococcus neoformans. Also, the selectivity ratio in [3], in data set [4], in data set [5] and in [6] was 2 to 16 each time. Further, the Activity in [7] stood at 61.48%; in data set [8] it was 25.29%; in data set [9], 13.22%; in the data set with Candida albicans [16] it was 4.49 log10CFU/g. Further, the IC50 worked out at 6800 nM against Histone deacetylase, 280 nM at Histone deacetylase 1 and 120 nM in data set [10]. Besides, the inhibition entry in the data set with Candida albicans [11], in the data set with Candida albicans [12], with Candida albicans [14], in the data set on Candida albicans [15], with Candida albicans [17] and in the data set with Candida albicans [18] was “Active” each time. Also, the inhibition entry with Candida albicans [13] was “Dose-dependent effect”.
For `CN(Cc1ccc(OCCCOc2ccc(CC(=O)NO)cc2)cc1)CC(O)(Cn1cncn1)c1ccc(F)cc1F` (racemic), the MIC80 in the data set on Candida albicans [1] was 0.125 µg/mL (≈ 0.215 µM); against Candida albicans [2] it was 0.25 µg/mL (≈ 0.43 µM); against Candida tropicalis it was 0.25 µg/mL (≈ 0.43 µM); in the data set with Cryptococcus neoformans, 0.5 µg/mL (≈ 0.86 µM). The selectivity ratio in data set [3], in data set [4], in data set [5] and in data set [6] was 2 to 16 throughout. For the same compound, the Activity in data set [7] is listed as 18.44%; in data set [8], 8.57%; in data set [9], 65.4%; with Candida albicans [16], 6.16 log10CFU/g. Also, the IC50 at Histone deacetylase was found to be 2700 nM; at Histone deacetylase 1 it was 690 nM; in [10] it was 600 nM. Besides, the inhibition entry in the data set with Candida albicans [11], with Candida albicans [12], in the data set on Candida albicans [14], in the data set with Candida albicans [15], with Candida albicans [17] and in the data set with Candida albicans [18] was “Active” in each case. Besides, in the data set on Candida albicans [13], the inhibition result was “Dose-dependent effect”.
